Assays:
[1] = test system: Puccinia recondita f. sp. tritici; test: Test C: wheat leaf rust, spray the day after inoculation of wheat seedlings; format: in vivo; conditions: Puccinia recondita, 120 h, wheat seedlings inoculated, sprayed the following day, rated after 5 days, read-out: Percentage Disease Control Test C;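 also: Curative spray on infected wheat seedlings with visual rating 5 days later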
Excerpt: General protocol for preparing test suspensions for Tests A-G: the test compounds were first dissolved in acetone in an amount equal to 11% of the final volume and then suspended at the desired concentration (in ppm) in acetone and purified water (50/50 mix by volume) containing 250 ppm of the surfactant Trem® 014 (polyhydric alcohol esters). The resulting test suspensions were then used in Tests A-G. Spraying a 200 ppm test suspension to the point of run-off on the test plants was the equivalent of a rate of 800 g/ha. Wheat seedlings were inoculated with a spore suspension of Puccinia recondita f. sp. tritici (the causal agent of wheat leaf rust) and incubated in a saturated atmosphere at 20° C. for 24 h. The following day, the test suspension was sprayed to the point of run-off on the wheat seedlings and then moved to a growth chamber at 20° C. for 5 days, after which time disease ratings were visually made. Results for Tests A-G are given in Table A. In the Table, a rating of 100 indicates 100% disease control and a rating of 0 indicates no disease control (relative to the controls). A dash (-) indicates no test results. All results are for 200 ppm except where followed by an “*”, which indicates 40 ppm.

[2] = test system: Puccinia recondita f sp. tritici; test: Test B: wheat leaf rust, preventive spray on wheat seedlings; format: in vivo; conditions: Puccinia recondita, 192 h, wheat seedlings sprayed to run-off, inoculated next day, rated after 24 h + 7 days, read-out: Percentage Disease Control Test B
Excerpt: General protocol for preparing test suspensions for Tests A-G: the test compounds were first dissolved in acetone in an amount equal to 11% of the final volume and then suspended at the desired concentration (in ppm) in acetone and purified water (50/50 mix by volume) containing 250 ppm of the surfactant Trem® 014 (polyhydric alcohol esters). The resulting test suspensions were then used in Tests A-G. Spraying a 200 ppm test suspension to the point of run-off on the test plants was the equivalent of a rate of 800 g/ha. The test suspension was sprayed to the point of run-off on wheat seedlings. The following day the seedlings were inoculated with a spore suspension of Puccinia recondita f sp. tritici (the causal agent of wheat leaf rust) and incubated in a saturated atmosphere at 20° C. for 24 h, and then moved to a growth chamber at 20° C. for 7 days, after which time disease ratings were visually made. Results for Tests A-G are given in Table A. In the Table, a rating of 100 indicates 100% disease control and a rating of 0 indicates no disease control (relative to the controls). A dash (-) indicates no test results. All results are for 200 ppm except where followed by an “*”, which indicates 40 ppm.

| melting point [°C] | SMILES | pest or weed control at 200 ppm [1] [%] | pest or weed control at 200 ppm [2] [%] |
| --- | --- | --- | --- |
|  | CC(=O)NCc1cc(-c2ccn(-c3ccc4c(c3)CCCO4)n2)ccc1Cl [Compound 2, N-[[2-chloro-5-[1-(3,4-dihydro-2H-1-benzopyran-6-yl)-1H-pyrazol-3-yl]-phenyl]methyl]acetamide] | 88 | 100 |
|  | CNC(=O)NCc1cc(-n2ccc(-c3ccc4c(c3)CCCO4)n2)ccc1Cl [Compound 9, N-[[2-chloro-5-[3-(3,4-dihydro-2H-1-benzopyran-6-yl)-1H-pyrazol-1-yl]phenyl]methyl]-N′-methylurea] | 8 | 88 |
| 134 to 138 | COC(=O)NCc1cc(-c2ccn(-c3ccc4c(c3)CCCO4)n2)ccc1F [Compound 12, methyl N-[[5-[1-(3,4-dihydro-2H-1-benzopyran-6-yl)-1H-pyrazol-3-yl]-2-fluorophenyl]methyl]carbamate] | 100 | 100 |
| 245 to 247 | COC(=O)NCc1cc(-c2ccn(-c3ccc4c(c3)C=C(C(=O)O)CO4)n2)ccc1Cl [Compound 24, 6-[3-[4-chloro-3-[[(methoxycarbonyl)amino]methyl]phenyl]-1H-pyrazol-1-yl]-2H-1-benzopyran-3-carboxylic acid] | 0 | 96 |
|  | CC(=O)NCc1cc(-n2ccc(-c3ccc4c(c3)CCCO4)n2)ccc1Cl [Compound 8, N-[[2-chloro-5-[3-(3,4-dihydro-2H-1-benzopyran-6-yl)-1H-pyrazol-1-yl]phenyl]methyl]acetamide] | 26 | 100 |
| 152 to 154 | COC(=O)NCc1cc(-n2ccc(-c3ccc4c(c3)CCCO4)n2)ccc1C [Compound 25, methyl N-[[5-[3-(3,4-dihydro-2H-1-benzopyran-6-yl)-1H-pyrazol-1-yl]-2-methylphenyl]methyl]carbamate] | 100 | 100 |
| 104 to 106 | COC(=O)NCc1cc(-c2ccn(-c3ccc4c(c3)CC(=O)CO4)n2)ccc1Cl [Compound 29, methyl N-[[2-chloro-5-[1-(3,4-dihydro-3-oxo-2H-1-benzopyran-6-yl)-1H-pyrazol-3-yl]phenyl]methyl]carbamate] | 0 | 99 |
|  | COC(=O)NCc1cc(-n2ccc(-c3ccc4c(c3)OCCO4)n2)ccc1Cl [Compound 7, methyl N-[[2-chloro-5-[3-(2,3-dihydro-1,4-benzodioxin-6-yl)-1H-pyrazol-1-yl]-phenyl]methyl]carbamate] | 100 | 100 |
| 185 to 187 | COC(=O)NCc1cc(-c2ccn(-c3ccc4c(c3)C=C(C(=O)OC)CO4)n2)ccc1Cl [Compound 23, methyl 6-[3-[4-chloro-3-[[(methoxycarbonyl)amino]methyl]phenyl]-1H-pyrazol-1-yl]-2H-1-benzopyran-3-carboxylate] | 0 | 94 |
|  | COC(=O)NCc1cc(-n2ccc(-c3ccc4c(c3)CCCO4)n2)ccc1Cl [Compound 5, methyl N-[[2-chloro-5-[3-(3,4-dihydro-2H-1-benzopyran-6-yl)-1H-pyrazol-1-yl]phenyl]methyl]carbamate] | 100 | 100 |
| 161 to 162 | COC(=O)NCc1cc(-c2ccn(-c3ccc4c(c3)CCCO4)n2)ccc1C [Compound 20, methyl N-[[5-[1-(3,4-dihydro-2H-1-benzopyran-6-yl)-1H-pyrazol-3-yl]-2-methylphenyl]methyl]carbamate] | 100 | 100 |
|  | CNC(=O)NCc1cc(-c2ccn(-c3ccc4c(c3)CCCO4)n2)ccc1Cl [Compound 4, N-[[2-chloro-5-[1-(3,4-dihydro-2H-1-benzopyran-6-yl)-1H-pyrazol-3-yl]-phenyl]methyl]-N′-methylurea] | 53 | 97 |
|  | COC(=O)NCc1cc(-n2ccc(-c3ccc4c(c3)OCO4)n2)ccc1Cl [Compound 6, methyl N-[[5-[3-(1,3-benzodioxol-5-yl)-1H-pyrazol-1-yl]-2-chlorophenyl]-methyl]carbamate] | 100 | 100 |
| 136 to 138 | COC(=O)NCc1cc(-c2ccn(-c3ccc4c(c3)CC(O)CO4)n2)ccc1Cl (stereo not shown) [Compound 30, methyl N-[[2-chloro-5-[1-(3,4-dihydro-3-hydroxy-2H-1-benzopyran-6-yl)-1H-pyrazol-3-yl]phenyl]methyl]carbamate] | 9 | 100 |
| 140 to 144 | COC(=O)NCc1cc(-n2ccc(-c3ccc4c(c3)CCCO4)n2)ccc1F [Compound 11, methyl N-[[5-[3-(3,4-dihydro-2H-1-benzopyran-6-yl)-1H-pyrazol-1-yl]-2-fluorophenyl]methyl]carbamate] | 100 | 100 |
|  | O=CNCc1cc(-c2ccn(-c3ccc4c(c3)CCCO4)n2)ccc1Cl [Compound 3, N-[[2-chloro-5-[1-(3,4-dihydro-2H-1-benzopyran-6-yl)-1H-pyrazol-3-yl]-phenyl]methyl]formamide] | 0 | 97 |
| 70 to 73 | COC(=O)NCc1cc(-c2ccn(-c3ccc4c(c3)CC3(CO4)OCCO3)n2)ccc1Cl [Compound 28, methyl N-[[2-chloro-5-(1-spiro[2H-1-benzopyran-3(4H), 2′-[1,3]dioxolan]-6-yl-1H-pyrazol-3-yl)phenyl]methyl]carbamate] | 100 | 100 |
